In PMC11206297, “Targeting NAD Metabolism: Rational Design, Synthesis and In Vitro Evaluation of NAMPT/PARP1 Dual-Target Inhibitors as Anti-Breast Cancer Agents” (Molecules, 2024):
Read-outs that look alike come from different tables or passages of the source.

How the values were obtained:
[1] = target: T1, PARP1 (Homo sapiens, UniProt P09874); design: method as in PMID 18579376, PMID 18800822, PMID 24388690, PMID 28340412, PMID 36183505; conditions: in figure; cited from earlier work
[2] = system: MDA-MB-468 cells; assay: Annexin V-FITC/PI apoptosis assay (flow cytometry); assay type: cell-based; conditions: 72 h
Description: To investigate whether DDY02 induced apoptosis in MDA-MB-468 cells, we performed the annexin V/PI double staining assay, and the staining results were analyzed by flow cytometry, dividing the results into four quadrants (Q1~Q4). In this representation, Q1 represents necrosis, Q2 represents late apoptosis, Q3 represents early apoptosis, and Q4 represents living cells.
The Annexin V-FITC/PI cell apoptosis detection kit (KeyGen Biotech, Nanjing, China) was employed for the analysis of cell apoptosis. MDA-MB-468 cells (5 × 10^5 cells/mL) were seeded in six-well plates and treated with compounds at corresponding concentrations for 72 h. Subsequently, MDA-MB-468 cells were harvested and incubated with 5 μL of Annexin V-FITC and 5 μL of propidium iodide (PI) in the dark for 15 min at room temperature. Apoptosis data were assessed using flow cytometry (Accuri C6 Plus, BD Bioscience, San Jose, CA, USA).

[3] = system: MDA-MB-468 cells; assay: NMN rescue of cytotoxicity; assay type: cell-based; conditions: 200 μM NMN
Excerpt: NMN is the direct product of the NAMPT-catalyzed reaction. Excessive NMN can counteract the inhibitory effect of NAMPT inhibition. […] The reversal of DDY02’s efficacy by NMN underscores the compound’s mechanism of action and confirms the critical role of NAMPT inhibition in mediating its therapeutic effects. This observation also emphasizes the potential of NMN as a modulator in therapeutic scenarios involving NAMPT-targeted treatments.

[4] = system: MCF-10A; assay: MTT cell viability assay, MCF-10A normal breast epithelial cells; assay type: cell-based, human; conditions: for viability at 3 µM: Homo sapiens, 72 h, MCF-10A, mean ± SEM, read-out: Cell Survival Rate; for selectivity of cytotoxic activity between breast cancer cells and normal cells (MCF-10A): comparison of Tables 2 and 3
Description: (§1) MDA-MB-468, MDA-MB-231, MCF-7, and MCF-10A cell lines were obtained from the National Collection of Authenticated Cell Culture, China. The cells were cultured in DMEM medium supplemented with 10% FBS and 1% penicillin/streptomycin, and maintained at 37 °C in a humidified atmosphere with 5% CO2.
(§2) Cell viability was assessed using the MTT assay. Cells were seeded at a density of 3 × 10^3 cells per well in a 96-well plate and treated with various concentrations (0.05, 0.2, 0.8, 3.2, 6.4, 12.8 µM) of the compounds for 72 h. After incubation, 100 µL of MTT solution (0.5 mg/mL) was added to each well and further incubated for 4 h. The resulting formazan crystals were dissolved in 150 µL of DMSO, and the absorbance was measured at 570 nm using a microplate reader.

[5] = as above; assay type: cell-based, human; conditions: human, MCF-10A normal breast epithelial cells; MCF-10A; mean ± SEM; read-out: Cytotoxicity IC50
Description: as §1, §2

[6] = system: MDA-MB-468 cells; assay: Western blot of γ-H2AX; assay type: cell-based; conditions: 24 h
Description: (§3) Cells were then lysed using RIPA buffer supplemented with protease and phosphatase inhibitors. Protein concentrations were determined using the BCA Protein Assay Kit (Thermo Fisher Scientific^TM, Waltham, MA, USA). Equal amounts of protein (20–30 µg) were separated by SDS-polyacrylamide gel electrophoresis and transferred to a polyvinylidene fluoride (PVDF) membrane. The membrane was blocked with 5% milk in PBS before incubation with primary antibodies. Primary antibodies against γ-H2AX (Cell Signaling Technology™, Danvers, MA, USA), BCL2 (Abcam™, Cambridge, UK), and β-actin (Proteintech™, Rosemont, IL, USA) were used. After overnight incubation at 4 °C, membranes were washed and incubated with HRP-conjugated secondary antibodies for 1 h. Protein bands were visualized using ECL reagents (Labgic Technology^TM, Beijing, China).

[7] = system: MDA-MB-468 cells; assay: Western blot of BCL2; assay type: cell-based; conditions: 24 h
Description: as §3

[8] = target: T1, PARP1; assay: PARP1 enzymatic inhibition assay (ELISA, chemiluminescence); assay type: biochemical; conditions: for IC50: mean ± SD of at least two independent experiments in duplicate
[9] = system: MDA-MB-468 cells; assay: Comet assay (DNA damage); assay type: cell-based; conditions: 24 h, several concentrations
Description: The comet assay was conducted under alkaline conditions using the Comet Assay Kit (Beyotime, Shanghai, China) following the manufacturer’s guidelines. […] This mixture was spread onto microscope slides and immersed in lysis solution for 1 h. Electrophoresis was carried out in a horizontal apparatus at 25 V and 300 mA. After electrophoresis, slides were stained with propidium iodide (PI) for DNA visualization, and images were captured using a fluorescence inverted microscope.

[10] = target: NAMPT (Homo sapiens, UniProt P43490); assay: NAMPT enzymatic inhibition assay (fluorescence, coupled NMNAT/alcohol dehydrogenase); assay type: biochemical; conditions: for IC50: mean ± SD of at least two independent experiments in duplicate
Chain of NAMPT (P43490 whole entry): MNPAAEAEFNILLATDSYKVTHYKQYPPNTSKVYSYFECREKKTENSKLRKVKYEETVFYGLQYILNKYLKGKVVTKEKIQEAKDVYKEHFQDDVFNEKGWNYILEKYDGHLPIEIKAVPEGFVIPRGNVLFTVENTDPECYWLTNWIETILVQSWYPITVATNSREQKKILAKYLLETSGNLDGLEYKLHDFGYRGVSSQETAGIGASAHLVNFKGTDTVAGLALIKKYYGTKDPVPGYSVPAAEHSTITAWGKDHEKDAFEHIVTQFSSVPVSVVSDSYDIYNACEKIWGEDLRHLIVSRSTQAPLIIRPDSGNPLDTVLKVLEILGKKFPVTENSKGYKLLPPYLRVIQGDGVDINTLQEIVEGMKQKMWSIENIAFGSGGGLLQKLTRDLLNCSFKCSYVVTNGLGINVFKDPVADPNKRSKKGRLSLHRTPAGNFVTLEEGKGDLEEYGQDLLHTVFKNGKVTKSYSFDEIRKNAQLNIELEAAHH

[11] = system: MDA-MB-231; assay: MTT cell viability assay, MDA-MB-231; assay type: cell-based; conditions: Homo sapiens, 72 h, mean ± SEM, read-out: Cytotoxicity IC50 MDA-MB-231
Description: as §1, §2

[12] = system: MDA-MB-468 cells; assay: Cell cycle analysis (PI staining, flow cytometry); assay type: cell-based; conditions: 48 h, several concentrations
Description: Cell cycle distribution was determined using a DNA Content Quantitation Assay Kit (Solarbio, China). MDA-MB-468 cells were seeded in six-well plates and treated with various […]
treatment, cells were harvested, ﬁxed in 70% ethanol at 4°C overnight, and washed with PBS.
Cells were then incubated with RNase (100 µL) at 37°C for 30 minutes followed by propidium iodide (PI) staining (400 µL, 30 minutes, 4°C in the dark). Cell cycle distribution was analyzed using an Accuri C6 Plus ﬂow cytometer (BD Biosciences, CA) and data were processed using […]
Figure S5. DDY02 induced cell cycle of MDA-MB-468 cells arrest in the G1 phase.
(1 picture or pasted object on this page, not shown here)

[13] = system: MDA-MB-468 cells; assay: Cellular NAD level determination (NAD+/NADH WST-8 kit); assay type: cell-based
Description: According to the manufacturer’s instructions, an NAD^+/NADH Assay kit with WST-8 (Beyotime, China) was used to measure the intracellular NAD level. The cells collected by centrifugation were added to NAD^+/NADH lysis buffer to obtain a cell lysate. After adding […] working solution, the lysate was incubated at 37 °C for 10 min, and then followed by the addition of color-developing solution. The total concentration of NADH and NAD can be measured by detecting the absorbance at 450 nm. To measure the concentration of NADH, the cell lysate was incubated at 60 °C for 30 min before adding […] working solution. Finally, the NAD content is obtained by the subtraction [NAD^+] = [NADH + NAD^+] − [NADH].

[14] = system: MCF-7; assay: MTT cell viability assay, MCF-7; assay type: cell-based; conditions: Homo sapiens, MCF7, 72 h, mean ± SEM, read-out: Cytotoxicity IC50 MCF-7
Description: as §1, §2

[15] = system: MDA-MB-468 cells; assay: Wound scratch cell migration assay; assay type: cell-based; conditions: up to 48 h
Description: MDA-MB-468 cells were plated in 6-well plates at a density of 5 × 10^5 cells/well and allowed to incubate overnight. A scratch was carefully generated in the cell monolayer using a 10 µL pipette tip. […] Images were acquired at 0, 12, 24, and 48 h time points to monitor and analyze the migration of cells over the specified intervals.

[16] = system: MDA-MB-468 cells; assay: Colony formation (clonogenic) assay; assay type: cell-based; conditions: MDA-MB-468, 7 days
Description: MDA-MB-468 cells were plated in 6-well plates at a density of 500 cells/well and allowed to grow for 7 days to promote colony formation. Following the incubation period, cells were washed with PBS, fixed in methanol for 15 min, and stained with 1% crystal violet for 1 h. Subsequently, colonies were imaged and counted.

[17] = system: MDA-MB-468; assay: MTT cell viability assay, MDA-MB-468; assay type: cell-based; conditions: Homo sapiens, 72 h, mean ± SEM, read-out: Cytotoxicity IC50 MDA-MB-468
Description: as §1, §2

T1 sequence (P09874 whole entry): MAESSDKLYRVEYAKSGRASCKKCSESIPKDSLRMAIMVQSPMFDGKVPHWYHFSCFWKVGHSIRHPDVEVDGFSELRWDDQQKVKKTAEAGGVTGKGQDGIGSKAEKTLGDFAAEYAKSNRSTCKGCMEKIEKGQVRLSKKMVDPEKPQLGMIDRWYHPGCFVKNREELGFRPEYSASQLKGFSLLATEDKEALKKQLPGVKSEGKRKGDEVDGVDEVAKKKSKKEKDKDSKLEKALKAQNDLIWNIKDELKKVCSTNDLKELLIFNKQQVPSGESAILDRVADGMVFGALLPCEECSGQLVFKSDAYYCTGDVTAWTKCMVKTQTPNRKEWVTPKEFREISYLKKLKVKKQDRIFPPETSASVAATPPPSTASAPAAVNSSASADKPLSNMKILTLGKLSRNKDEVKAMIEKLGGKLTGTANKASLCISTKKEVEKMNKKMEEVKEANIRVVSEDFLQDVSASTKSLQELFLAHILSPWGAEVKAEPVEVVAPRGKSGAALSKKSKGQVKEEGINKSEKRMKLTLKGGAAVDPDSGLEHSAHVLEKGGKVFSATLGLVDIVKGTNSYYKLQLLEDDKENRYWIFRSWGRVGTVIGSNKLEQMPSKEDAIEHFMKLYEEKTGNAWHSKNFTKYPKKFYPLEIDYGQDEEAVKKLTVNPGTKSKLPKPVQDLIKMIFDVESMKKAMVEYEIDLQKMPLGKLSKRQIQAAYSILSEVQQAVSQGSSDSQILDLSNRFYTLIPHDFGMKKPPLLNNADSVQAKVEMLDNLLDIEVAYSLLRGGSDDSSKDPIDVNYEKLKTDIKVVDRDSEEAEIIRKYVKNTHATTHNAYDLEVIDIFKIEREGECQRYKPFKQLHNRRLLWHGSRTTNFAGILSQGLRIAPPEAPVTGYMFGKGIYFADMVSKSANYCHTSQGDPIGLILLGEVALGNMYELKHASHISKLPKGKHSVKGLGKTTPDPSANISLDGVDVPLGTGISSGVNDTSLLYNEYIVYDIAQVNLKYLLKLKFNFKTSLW

Row | IC50 [8] | IC50 [10] | melting point | Compound | cytotoxic effects after preincubation with NMN [3] | viability at 3 µM [4] | selectivity of cytotoxic activity between breast cancer cells and normal cells (MCF-10A) [4] | IC50 at 72 h [5] | accumulation of γ-H2AX ([6]; 1 μM) | IC50 [11] | cellular NAD levels ([13]; 24 h, 1 μM) | IC50 [14] | inhibitory effect on cell migration ([15]; 1 μM) | IC50 [17] | BCL2 expression ([7]; 1 μM) | further results
1 | – | – | – | NC(=O)c1ccccc1OCc1ccc(F)c(C(=O)N2CCN(C(=O)C3CCCC3)CC2)c1 [Compound 16] | – | – | – | – | – | – | – | – | – | – | – | IC50 [1]: 0.061 µM
2 | 0.05 ± 0.01 µM | 0.01 ± 0.003 µM | 197 to 198 °C | O=C(NCc1cccnc1)Nc1ccc(S(=O)(=O)N2CCN(C(=O)c3cc(Cc4n[nH]c(=O)c5ccccc45)ccc3F)CC2)cc1 [DDY02, 1-(4-((4-(2-Fluoro-5-((4-oxo-3,4-dihydrophthalazin-1-yl)methyl)benzoyl)piperazin-1-yl)sulfonyl)phenyl)-3-(pyridin-3-ylmethyl)urea] | reversed the cytotoxic effects | 70.3 ± 1.06% | no selectivity | 5.31 ± 0.12 µM | most substantial effect | 10.4 ± 0.16 µM | marginally less potent than FK866 | 7.61 ± 0.14 µM | slightly less pronounced inhibitory effect | 4.43 ± 0.04 µM | – | percentage of apoptotic cells (Q2 + Q3) ([2]; 0.3 µM): 13.34%; levels of apoptosis (comparison) ([2]; 1 μM): higher levels of apoptosis compared to Olaparib and FK866 alone; percentage of apoptotic cells (Q2 + Q3) ([2]; 1 μM): 21.20%; percentage of apoptotic cells (Q2 + Q3) ([2]; 3 µM): 48.3%; accumulation of γ-H2AX ([6]; several concentrations): dose-dependent accumulation of γ-H2AX; BCL2 expression ([7]; several concentrations): inhibited BCL2 expression in a dose-dependent manner; fold decrease in inhibitory capacity against PARP1 compared to DDY01 ([8]; ratio of IC50 values): 5.5 fold; DNA damage (comet assay) [9]: increased DNA damage in a concentration-dependent manner; cell cycle distribution [12]: dose-dependent G1-phase cell cycle arrest; cellular NAD levels ([13]; 24 h post-treatment, several concentrations): reduced cellular NAD levels in a dose-dependent manner; inhibitory effect on cell migration ([15]; 3 μM): further augmented; colony formation ([16]; 1 μM): more potent ability to inhibit colony formation compared to Olaparib, albeit slightly less effective than FK866; colony formation ([16]; several concentrations): dose-dependent suppression of colony formation
3 | – | – | > 250 °C | NC(=O)c1cccc2[nH]c(C(=O)N3CCN(S(=O)(=O)c4ccc(NC(=S)NCc5cccnc5)cc4)CC3)nc12 [DDY10, 2-(4-((4-(3-(Pyridin-3-ylmethyl)thioureido)phenyl)sulfonyl)piperazine-1-carbonyl)-1H-benzo[d]imidazole-4-carboxamide] | – | 96.9 ± 1.71% | – | – | – | 4.45 ± 0.29 µM | – | 8.83 ± 0.31 µM | – | 6.74 ± 0.16 µM | – | inhibition at 0.5 µM ([8]; 0.5 μM, duplicate, average, read-out: PARP1 Inhibition Rate): 55%; inhibition at 0.1 µM ([10]; 0.1 μM, duplicate, average, read-out: NAMPT Inhibition Rate): 7%
4 | 0.014 ± 0.003 µM | 0.034 ± 0.009 µM | > 250 °C | NC(=O)c1cccc2[nH]c(C(=O)N3CCN(S(=O)(=O)c4ccc(NC(=O)NCc5cccnc5)cc4)CC3)nc12 [DDY11, 2-(4-((4-(3-(Pyridin-3-ylmethyl)ureido)phenyl)sulfonyl)piperazine-1-carbonyl)-1H-benzo[d]imidazole-4-carboxamide] | – | 82.15 ± 0.21% | – | – | – | 13.8 ± 0.33 µM | – | 7.39 ± 0.34 µM | – | 12.2 ± 1.39 µM | – | –
5 | – | – | – | O=C(/C=C/c1cccnc1)NCCCCC1CCN(C(=O)c2ccccc2)CC1 [FK866, reference compound] | reversed the cytotoxic effects | 65.49 ± 0.41% | – | 4.41 ± 0.22 µM | promoted the accumulation of γ-H2AX | 3.83 ± 0.12 µM | – | 5.8 ± 0.86 µM | weakest inhibitory activity | 4.01 ± 0.21 µM | no effect on the expression of BCL2 | –
6 | – | – | – | O=C(c1cc(Cc2n[nH]c(=O)c3ccccc23)ccc1F)N1CCN(C(=O)C2CC2)CC1 [Olaparib, reference compound] | – | 91.8 ± 1.78% | no selectivity | 9.61 ± 0.77 µM | – | 6.74 ± 0.08 µM | did not alter intracellular NAD levels compared to the control | 8.68 ± 0.81 µM | most robust inhibitory effect | 6.19 ± 0.09 µM | significantly inhibited the expression of the BCL2 protein | –
